What was measured:
[1] = molecular target: T1, CB1 (rCB1) (Rattus norvegicus, UniProt P20272); test: Radioligand competition binding, [3H]-CP-55,940, rat brain membranes; conditions: for pKi [95% CI]: rCB1; for Ki: read-out: Ki [95% CI], rCB1, [3H]-CP-55,940
[2] = molecular target: T1, CB1 (rCB1); test: Single-point radioligand displacement screen; assay type: binding; conditions: for % 1H-CP-55,940 displacement (mean) from single point screen: 10 µM, 1 µM or 300 nM by cell colour (not visible); for rep1_displacement / rep2_displacement / rep3_displacement: Figure 1c source data; for rep1_displacement: replicate 1; for rep2_displacement: replicate 2; for rep3_displacement: replicate 3

T1 sequence (P20272 whole entry): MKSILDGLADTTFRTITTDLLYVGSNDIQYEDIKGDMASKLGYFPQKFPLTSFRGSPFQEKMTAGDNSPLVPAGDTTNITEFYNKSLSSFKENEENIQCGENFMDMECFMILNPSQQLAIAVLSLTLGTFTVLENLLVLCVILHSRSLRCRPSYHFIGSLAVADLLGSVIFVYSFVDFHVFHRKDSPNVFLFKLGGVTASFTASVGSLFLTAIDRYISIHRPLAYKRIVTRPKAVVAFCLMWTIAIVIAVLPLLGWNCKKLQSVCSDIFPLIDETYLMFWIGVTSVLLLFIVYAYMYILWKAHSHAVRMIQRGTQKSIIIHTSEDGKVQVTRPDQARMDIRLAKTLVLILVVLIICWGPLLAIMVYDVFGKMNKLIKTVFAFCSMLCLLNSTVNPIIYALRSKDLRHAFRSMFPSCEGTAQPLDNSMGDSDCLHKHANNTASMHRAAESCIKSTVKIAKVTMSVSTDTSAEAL

Row | SMILES | % 1H-CP-55,940 displacement (mean) from single point screen [2] [%] | rep1_displacement [2] | other results
1 | COC(=O)[C@@H](c1cccs1)N(C)C(=O)c1cc(C)n(-c2cccc(C(F)(F)F)c2)n1 [‘6000] | – | – | pKi [95% CI] [1]: 5.8 [5.7 – 6.0]; Ki [1]: 1460 nM
2 | COC(=O)C(c1ccco1)N(C)C(=O)c1cc(C)n(-c2cccc(C(F)(F)F)c2)n1 (centres unmarked) [‘6425] | – | – | pKi [95% CI] [1]: 6.0 [5.8 – 6.2]; Ki [1]: 934 nM
3 | Cc1cc(C(=O)NC(C)(c2ccccc2)c2ccco2)nn1-c1cccc(C(F)(F)F)c1 (centres unmarked) [‘5806] | – | – | pKi [95% CI] [1]: 8.1 [7.7 – 8.5]; fold improvement in CB1R affinity ([1]; vs parent hit or analog without the change): ~15 fold
4 | CCCCCCC(C)(C)c1cc(O)c2c(c1)OC(C)(C)C1CCC(=O)CC21 (centres unmarked) [Nabilone, reference compound] | – | – | pKi [95% CI] [1]: 8.6 [8.4 – 8.9]; Ki [1]: 2.3 nM
5 | CCc1nc(C(=O)NC(c2ccccc2)c2cccnc2)nn1-c1ccccc1Cl (centres unmarked) [compound 00051] | 16.02 | 20.4 | rep2_displacement [2]: 19.7; rep3_displacement [2]: 7.9
6 | CC(C)(C)c1c(C(=O)OCC2CSc3ccccc3O2)cnn1Cc1ccccc1 (centres unmarked) [7800_22] | 73.02 | – | –
7 | COc1ccc(Cc2noc(-c3oc(CC4CC4)nc3C)n2)cc1 [compound 8861] | 15.76 | – | –
8 | O=C(NCC1CSc2ccccc2O1)c1cn(Cc2ccccc2)nn1 (centres unmarked) [compound 78184] | 28.43 | – | –
9 | CCCCCCC1(c2cc(O)c3c(c2)OC(C)(C)[C@@H]2CC[C@@H](O)C[C@@H]32)CCC1 [AM2389, reference compound] | – | 99.9 | rep2_displacement [2]: 99.9; rep3_displacement [2]: 99.8
10 | Cc1c(C(=O)OCC2COc3ccccc3O2)cnn1Cc1ccccc1 (centres unmarked) [compound 32445] | 35.36 | – | –
11 | COC(=O)C(NC(=O)c1csc(Cc2ccccc2)n1)c1cccs1 (centres unmarked) [compound 61815] | 32.97 | – | –
12 | Fc1ccc(C(F)(F)c2noc(-c3cnnn3-c3cccc(F)c3)n2)cc1 [compound 9217] | 46.71 | 49.7 | rep2_displacement [2]: 46.4; rep3_displacement [2]: 44.1
13 | O=C1CN(C(=O)c2cc3cc(Br)ccc3o2)CN1Cc1ccccc1 [compound 46675] | 22.64 | 22.6 | –
14 | Cn1cc2c(n1)CCCC2c1nc(C2(c3cccc(C(F)(F)F)c3)CC2)no1 (centres unmarked) [compound 18525] | 41.38 | 39.7 | rep2_displacement [2]: 46.2; rep3_displacement [2]: 38.2
15 | O=c1c2cnn(-c3ccccc3)c2nnn1Cc1cc(Cl)ccc1Cl [compound 59552] | 38.03 | 36.6 | rep2_displacement [2]: 38.4; rep3_displacement [2]: 39.1
16 | O=C(OCC1CSc2ccccc2O1)c1cn(Cc2cccc(F)c2)nn1 (centres unmarked) [compound 23346] | 25.27 | – | –
17 | Cc1nc(CC2CC2)oc1-c1nc(Cc2ccc3c(c2)OCCCO3)no1 [7019_1] | 6.40 | – | –
18 | Cc1cc(C(=O)N2CC3(CCC3)[C@@H]3COC[C@@H]32)nn1-c1cccc(C(F)(F)F)c1 [10_14] | 91.30 | – | –
19 | COCc1nc(-c2nc(Cc3ccc4c(c3)OCO4)no2)c(-c2ccccc2)s1 [7019_29] | 24.10 | – | –
20 | Cc1ccc(OCCC(=O)N2CC3CCCN3c3ccccc32)c(C)c1 (centres unmarked) [compound 26701] | 35.34 | 39 | rep2_displacement [2]: 34.5; rep3_displacement [2]: 32.6
21 | COC(=O)[C@@H]1[C@@H]2CCC[C@@H]2CN1C(=O)c1nn(-c2cccc(C(F)(F)F)c2)c2c1CCC2 [10_17] | 98.24 | – | –
22 | Cc1cc(C(=O)NC(c2cccnc2)C2CC2)nn1-c1cccc(C#N)c1 (centres unmarked) [compound 74836] | 33.29 | 34.5 | rep2_displacement [2]: 34.8; rep3_displacement [2]: 30.5
23 | COC(=O)[C@H](C)NC(=O)c1cc(C)n(-c2cccc(F)c2)n1 [1486_11] | -7.46 | – | –
24 | Cc1nc(CC2CC2)oc1-c1nc(Cn2c(C(C)C)nc3ccccc32)no1 [7019_26] | 42.67 | – | –
25 | Cc1nn(CC2CC2)c(C)c1Cc1nc(Cc2ccc3c(c2)OCO3)no1 [7019_28] | 36.27 | – | –
26 | Cc1c(C(=O)OCc2nc3ccccc3o2)cnn1Cc1ccccc1 [compound 8354] | 59.03 | – | –
27 | Cc1c(C(=O)NCC2CSc3ccccc3O2)cnn1-c1ccc(C(F)(F)F)cc1 (centres unmarked) [compound 6445] | 46.11 | – | –
28 | Fc1ccc(-n2ncc3c(SCc4cc(-c5ccco5)on4)ncnc32)cc1 [compound 23397] | 17.08 | 23 | rep2_displacement [2]: 15.9; rep3_displacement [2]: 12.4

From PMC11882969 (Nature Communications, 2025)
